SMILES strings stand for the structures.

In the test the target is T1, type H3 central histamine receptors (Mus musculus, UniProt P58406).
T1 construct: from tissue; host or cells: brain of living NMRI mice, treated in vivo; brains removed afterwards for the metabolite RIA
The experiment in a line: Cerebral levels of Nτ-methylhistamine in the NMRI mouse (ex vivo, RIA). The conditions noted are these: one hour after treatment. The protocol: The purpose of this study, which was carried out in accordance with the method of Taylor et al. (Biochem. Pharm., 1992, 44, 1261-1267), is to evaluate the ex vivo activity of the compounds of the present invention as antagonists of type H3 central histamine receptors. […] An increase in the cerebral concentrations of N^τ-methylhistamine indicates an increase in the turn-over of histamine by blockage of the type H3 central histamine receptors.
NMRI mice (18-20 g) are treated intraperitoneally or orally with compounds of the present invention or with their carrier (20 ml/kg). One hour after the pharmacological treatment, the animals are sacrificed, and their brains are removed, frozen in liquid nitrogen, weighed and homogenised in 0.1N HClO4 at 4° C. The homogenised products are centrifuged (15 000 g, 17 min, 4° C.). The supernatants are recovered and divided into aliquots. The aliquots are frozen in liquid nitrogen and stored at −80° C. until analysis.
Determination of the cerebral levels of N′-methylhistamine is carried out by radio-immunological assay (RIA) using an assay kit. The tissue levels of N^τ-methylhistamine are expressed in μg/g of fresh brain. […]

T1 sequence (P58406 whole entry): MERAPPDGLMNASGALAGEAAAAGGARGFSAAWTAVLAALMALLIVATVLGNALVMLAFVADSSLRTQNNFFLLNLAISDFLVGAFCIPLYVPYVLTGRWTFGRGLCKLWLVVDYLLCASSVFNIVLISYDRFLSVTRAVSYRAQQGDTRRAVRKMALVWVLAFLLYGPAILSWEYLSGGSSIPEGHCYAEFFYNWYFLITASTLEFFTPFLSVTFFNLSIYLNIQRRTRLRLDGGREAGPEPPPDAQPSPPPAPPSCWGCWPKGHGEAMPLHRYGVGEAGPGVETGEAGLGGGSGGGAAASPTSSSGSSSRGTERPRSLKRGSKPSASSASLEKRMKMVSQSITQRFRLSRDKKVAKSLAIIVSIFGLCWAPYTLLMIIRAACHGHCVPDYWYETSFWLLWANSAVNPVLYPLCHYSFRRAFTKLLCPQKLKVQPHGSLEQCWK

With `CS(=O)(=O)Nc1ccc(-c2ccc(N3CCN(C4CC4)CC3)nc2)cc1.Cl.Cl` [Example 4, N-{4-[6-(4-Cyclopropylpiperazin-1-yl)pyridin-3-yl]phenyl}methane-sulphonamide dihydrochloride], the “increase in the endogenous cerebral concentrations of Nτ-methylhistamine” value (10 mg/kg PO) was 162%. In the case of `CC(C)N1CCN(c2ccc(-c3ccc(NS(=O)(=O)C(C)C)cc3)cn2)CC1.Cl.Cl` [Example 7, N-{4-[6(4-Isopropylpiperazin-1-yl)pyridin-3-yl]phenyl}propane-2-sulphonamide dihydrochloride], the “increase in the endogenous cerebral concentrations of Nτ-methylhistamine” value (3 mg/kg PO) worked out at 138%.
